Measured values reported in US20190092792A1, “VINORELBINE MONOTARTRATE AND ITS PHARMACEUTICAL USE” (priority 2016, published 2019).
Read-outs that look alike come from different tables or passages of the source.

Legend:
[1] = Thermostability of vinorelbine monotartrate solid forms at 5° C., 25° C. and 40° C. (degradation impurities by HPLC); type: physicochemical; conditions: for Degradation products (%) 3,6-epoxy vinorelbine / Degradation products (%) Total / Degradation products (%) vinorelbine N-oxide: amorphous form, 40° C.
Description: (§1) The degradation impurities are determined after a specific amount of time of incubation by means of HPLC.
(§2) The term “degradation impurities”, as used herein, is to be understood such a sample of the relevant product is subjected to HPLC analysis and calculation of the content of impurities in Vinorelbine is performed according to the method described in European Pharmacopoeia 7.0.
The term “degradation”, as used herein, is to be understood to relate to the total amount of identified (e.g. 3,6-epoxy vinorelbine, 4-O-deacetylvinorelbine and vinorelbine N-oxide) and unidentified degradation products that form in a sample after a particular incubation period.
(§3) HPLC analysis and calculation of the content of impurities in Vinorelbine were performed according to the method described in European Pharmacopoeia 7.0.
Three further representative batches of crystalline vinorelbine monotartrate acetone solvate being produced according to Example 1 were analyzed for stability (i.e. batches no. 011213, no. 021213, and no. 010414). The samples were exposed to temperatures of 5° C. and 25° C. for three and six months, respectively. Batch no. 010414 was also exposed to a temperature of 40° C. (at 60%±2% relative humidity) for 15 days, 1 month, and two months, respectively.
Crystalline vinorelbine monotartrate hydrate being produced according to Example 5 were analyzed for stability. The samples were exposed to temperatures of 25° C. and 40° C. for three and six months, respectively.
In order to evaluate the thermostability and photostability of the compound the sample was exposed to a temperature of 40° C. for 2 weeks analyzed by HPLC.

[2] = Comparable stressing stability study at 60° C. (total degradation impurities by HPLC); type: physicochemical; conditions: for Total degradation impurities: 60° C.
Description: as §1, §2, §3

[3] = xenon lamp 300-800 nm
Description: The term “photostability”, as used herein, is to be understood such that a sample of the product to be analyzed in a quantity of about 14 mg is placed in a 10 ml light glass volumetric flask and is exposed in a photo chamber to a xenon lamp (wave length 300-800 nm; fluence rate 250-765 W/m2). The amount of the known photo-degradation product 3,6-epoxy vinorelbine is determined after a specific amount of time of exposure by means of HPLC (High-performance liquid chromatography). The described photostability test procedure corresponds to the photostability determining method described in European Pharmacopoeia 7.0 using exposure time 2 hours.
Furthermore, a comparative photo-degradation analysis of crystalline vinorelbine monotartrate hydrate, according to the present invention and vinorelbine bitartrate was performed.
The samples (about 14 mg each) were placed in 10 ml light glass volumetric flasks and exposed in a photo chamber to a xenon lamp (wave length 300-800 nm; fluence rate 250-765 W/m^2). The amount of the known photo-degradation product 3,6-epoxy vinorelbine was determined at various time points by means of HPLC.

Molecule	Total degradation impurities ([2]; 1 week)	Photodegradation product (3,6-epoxy vinorelbine), % ([3]; exposure 0 min)	Total impurities (excluding photodegradation product), % ([3]; exposure 0 min)	Photodegradation product (3,6-epoxy vinorelbine), % ([3]; exposure 15 min)	Total impurities (excluding photodegradation product), % ([3]; exposure 15 min)	Photodegradation product (3,6-epoxy vinorelbine), % ([3]; exposure 30 min)	Total impurities (excluding photodegradation product), % ([3]; exposure 30 min)	Photodegradation product (3,6-epoxy vinorelbine), % ([3]; exposure 60 min)	Total impurities (excluding photodegradation product), % ([3]; exposure 60 min)	Photodegradation product (3,6-epoxy vinorelbine), % ([3]; exposure 120 min)	Total impurities (excluding photodegradation product), % ([3]; exposure 120 min)	other results
vinorelbine monotartrate acetone solvate	LT 0.05%	–	–	–	–	–	–	–	–	–	–	degradation (in words) ([1]; six months storage at 5° C.+3° C.): almost no degradation; degradation (in words) ([1]; six months storage at 25° C.±2° C.): almost no degradation; degradation (in words) ([1]; two months storage at 40° C.): only minimal degradation; Total degradation impurities ([2]; 3 weeks): 0.08%; Total degradation impurities ([2]; 8 weeks): 0.24%; chemical degradation (in words) ([2]; one week storage at 60° C.): didn't show any chemical degradation
vinorelbine monotartrate [amorphous vinorelbine monotartrate]	–	–	–	–	–	–	–	–	–	–	–	Degradation products (%) 3,6-epoxy vinorelbine ([1]; 15 days): 0.13%; Degradation products (%) Total ([1]; 15 days): 1.08%; Degradation products (%) vinorelbine N-oxide ([1]; 15 days): 0.33%; Degradation products (%) 3,6-epoxy vinorelbine ([1]; initial): LT 0.05%; Degradation products (%) Total ([1]; initial): 0.13%; Degradation products (%) vinorelbine N-oxide ([1]; initial): LT 0.05%; stability (in words) ([1]; exposure to elevated temperature and humidity for an extended period): unstable; degradation (in words) ([1]; incubation for two weeks at 40° C.): significant degradation
CCC1=C[C@@H]2CN(C1)Cc1c([nH]c3ccccc13)[C@@](C(=O)OC)(c1cc3c(cc1OC)N(C)[C@H]1[C@@](O)(C(=O)OC)[C@H](OC(C)=O)[C@]4(CC)C=CCN5CC[C@]31[C@@H]54)C2.O=C(O)C(O)C(O)C(=O)O.O=C(O)C(O)C(O)C(=O)O [vinorelbine bitartrate, reference compound]	9.8%	0.05%	0.10%	0.16%	0.10%	0.24%	0.16%	0.35%	0.20%	0.72%	0.27%	–
vinorelbine monotartrate hydrate	–	0.03%	0.10%	0.08%	0.10%	0.14%	0.10%	0.28%	0.10%	0.44%	0.17%	overall accumulation of degradation impurities ([1]; after 6 months at 25° C.): ≤ 0.02%; overall accumulation of degradation impurities ([1]; after 6 months at 40° C.): ≤ 0.15%; thermostability, degradation ([2]; one week storage at 60° C.): less than 0.10%
